Test results published in patent publication US4228167A, “Diuretic and vasodilating tricyclic quinazolines” (Sumitomo Chemical Company, Limited, priority 1977, dated 1980).
Values after ≈ are worked out from the molar mass of the structure shown. Read-outs that look alike come from different tables or passages of the source.

What was measured:
[1] = Diuretic activity (urinary excretion) in rats; type: in vivo; settings: standard dose of 10 mg/kg; for Urinary excretion K^30: potassium, control 0.53; for Urinary excretion Na^+ /K^ +: ratio, control 2.9; for Urinary excretion Na^30: sodium, control 1.5; for Urinary excretion: urine volume, control 9.5
Protocol: Diuretic activity was evaluated according to the method described by W. L. Lipschits et al., J. Pharmacol. Exp. Ther., 79, 97 (1943). The results in rats are shown in Table I, where the data for a standard dose of 10 mg/kg is listed for the purpose of comparison.

rat aortic strips = experiment: Vasodilating activity: relaxation of isolated rat aortic strips contracted with potassium chloride; settings: read-out: Median effective concentration (ED50)
Protocol: Vasodilating activity was examined by use of the method described by N. Tada et al., J. Pharmacol. Exp. Ther., 191, 139 (1974). The rat aortic strips were isolated and contracted using 30 mM of potassium chloride. Dose dependent relaxation in the aortic strips was observed by adding the test compounds. At the end of each experiment, papaverine in a concentration of 3×10^-5 g/ml was added and the relaxation induced was taken as 100%. Median effective concentration (ED50) was obtained from dose response curves.

[2] = rat aortic strips contracted with 30 mM potassium chloride, relaxation by papaverine 3×10^-5 g/ml taken as 100%

Structure (SMILES)	Urinary excretion K^30 [1]	Urinary excretion Na^+ /K^ + [1]	Urinary excretion Na^30 [1]	Urinary excretion [1]	EC50 (rat aortic strips; [2])	EC50 (rat aortic strips; Rattus norvegicus)
CN1C2=NCCN2C(O)(c2ccc(Cl)cc2)c2ccccc21 (stereo not shown) [H, H, p-Cl, Me, OH, CH2 CH2, 5-(p-chlorophenyl)-5-hydroxy-10-methyl-2,3,5,10-tetrahydroimidazo[2,1-b]quinazoline]	0.84 mequiv/kg	5.2	4.4 mequiv/kg	32.6 mL/kg		
CN1C2=NCCCN2C(c2ccccc2)c2cc(Cl)ccc21 (stereo not shown) [8-Cl, H, H, Me, H, CH2 CH2 CH2, 8-chloro-11-methyl-6-phenyl-3,4,6,11-tetrahydro-2H-pyrimido[2,1-b]quinazoline]	0.97 mequiv/kg	5.6	5.6 mequiv/kg	38.3 mL/kg		
Clc1ccc2c(c1)N(CC1CC1)C1=NCCCN1C2c1ccccc1 (stereo not shown) [9-Cl, H, H, [drawing 4], H, CH2 CH2 CH2, 9-Chloro-11-cyclopropylmethyl-6-phenyl-3,4,6,11-tetrahydro-2H-pyrimido[2,1-b]quinazoline]	0.78 mequiv/kg	6.1	4.7 mequiv/kg	34.3 mL/kg	0.29 µg/mL (≈ 0.824 µM)	
COc1ccc2c(c1)C(c1ccccc1)N1CCN=C1N2CC1CC1 (stereo not shown) [7-MeO, H, H, [drawing 6], H, CH2 CH2, 10-Cyclopropylmethyl-7-methoxy-5-phenyl-2,3,5,10-tetrahydroimidazo[2,1-b]quinazoline]					1 µg/mL (≈ 3 µM)	
COc1ccc(Cc2nccc3cc(OC)c(OC)cc23)cc1OC [Papaverine, reference compound]						4.6 µg/mL (≈ 13.6 µM)
Clc1ccc2c(c1)N(CC1CC1)C1=NCCN1C2c1ccccc1 (stereo not shown) [8-Cl, H, H, [drawing 3], H, CH2 CH2, 8-Chloro-10-cyclopropylmethyl-5-phenyl-2,3,5,10-tetrahydroimidazo[2,1-b]quinazoline]	0.92 mequiv/kg	4.0	3.7 mequiv/kg	26.8 mL/kg	0.24 µg/mL (≈ 0.71 µM)	
CCCCN1C2=NCCCN2C(c2ccccc2)c2cc(Cl)ccc21 (stereo not shown) [8-Cl, H, H, n-Bu, H, CH2 CH2 CH2, 8-Chloro-11-(n-butyl)-6-phenyl-3,4,6,11-tetrahydro-2H-pyrimido[2,1-b]quinazoline]					0.27 µg/mL (≈ 0.763 µM)	
CCCCN1C2=NCCN2C(c2ccccc2)c2cc(Cl)ccc21 (stereo not shown) [7-Cl, H, H, n-Bu, H, CH2 CH2, 7-chloro-10-(n-butyl)-5-phenyl-2,3,5,10-tetrahydroimidazo[2,1-b]quinazoline]	0.86 mequiv/kg	5.3	4.5 mequiv/kg	31.1 mL/kg		
